Source: patent publication US7691624B2, “Cancer cell detecting devices” (Academia Sinica, priority 2003, dated 2010)

Assays:
DNA duplex = test: Absorption analysis of compound/DNA complex; assay type: binding; details: in the presence of a DNA duplex
Protocol: (§1) Each oligonucleotide described above was mixed with a solution of 10 mM Tris-HCl (pH 7.5) and 150 mM NaCl and was denatured at 90° C. for 2 min. The mixture was then cooled slowly to room temperature and stored at 4° C. for more than 2 days before use. A test compound was then added to this solution to form a compound/DNA complex. The resultant complex was subjected to absorption analysis using a Hitachi U3200 UV-visible spectrophotometer.
(§2) The absorption spectra were taken for compound 2 and its complex with each oligonucleotide. […] In addition, the molar absorption coefficient decreased by ˜15% in the presence of a DNA duplex and ˜35% in the presence of a DNA quadruplex. 10 These spectra changes indicate that compound 2 binds to duplexes and quadruplexes.

DNA quadruplex = test: Absorption analysis of compound/DNA complex; assay type: binding; details: in the presence of a DNA quadruplex
Protocol: as §1, §2

[1] = Fluorescence analysis in aqueous solution; assay type: physicochemical; details: λex≈430 nm, no DNA
Protocol: Compound 2 was mixed with eleven DNAs and subjected to fluorescence analysis at λex≈430 nm, using a Hitachi F4010 spectrofluorimeter with a 2 nm bandwidth in a 1-cm cell. Fluorescence analysis was also carried out for compound 4 in the presence of Hum24. […] Further, the fluorescence peaks for a complex of compound 2 and a DNA duplex and a complex of compound 2 and a DNA quadruplex were at ˜550 nm and ˜575 nm, respectively.

Hum24 quadruplex = test: Temperature-dependent CD analysis; assay type: binding, human
From the text: Eight DNA quadruplexes and their complexes with compound 2 were subjected to CD analysis. CD spectra were averaged 10 scans on a Jasco J-715 spectropolarimeter with a 2 nm bandwidth. The scan speed was 50 nm/min and the step resolution was 0.2 nm.
Further, Hum24 and its complexes with compounds 2, 4, 6, and 8 were subjected to temperature-dependent CD analysis.

[2] = tested on: AT, LD, GC, G10, LQ1, LQ2, LQ4, Tet12, Oxy12, Hum12, Apt, Oxy28, and Hum24; test: Post-stained polyacrylamide gel electrophoresis; assay type: binding; details: gels post-stained with 10 μM compound, 254 nm UV light
Protocol: Compound 2 and its complexes with DNA quadruplexes were further studied by polyacrylamide gel eletrophoresis (PAGE). More specifically, compound 2/DNA quadruplexes described above were analyzed by PAGE in 20% native gels in 10 mM Tris-HCI and 150 mM NaCl (pH 7.5). Gel electrophoresis was carried out in an electric field of 100 V/cm at 4° C. for 15 hours. DNA concentrations were determined by absorbencies at 260 nm and were adjusted to about 10 μM per unit structure. After photographing with UV shadowing, gels were post-stained in a solution containing 10 μM of compound 2, 10 mM Tris-HCl, and 150 mM NaCl (pH 7.5) at room temperature for 10 seconds. The gels were then rinsed by distilled water and photographed under 254 nm UV light using a digital camera.
Gels were post-stained with compound 2 after electrophoresis of AT, LD, GC, G10, LQ1, LQ2, LQ4, Tet12, Oxy12, Hum12, Apt, Oxy28, and Hum24 was complete. […] In particular, most DNAs migrated in the gel in a single band, but Tet12 and LQ4 migrated in two bands.

AT = test: Pre-stained gel electrophoresis selectivity assay; assay type: binding; details: 0.1 μM compound, 10 μM DNA, 254 nm UV light
Protocol: (§3) Pre-stained gels were used for selectivity assays. A 0.1 μM compound 2 solution was initially incubated with 10 μM of different DNA solutions for 10 minutes. Gel electrophoresis was then carried out in an electric field of 100 V/cm at 4° C. for 6 hours. All of the pre-stained gels were photographed under 254 nm UV light using a Bio-Rad imaging detector.
(§4) Gels pre-stained with compound 2 were used before running electrophoresis for AT, LD, GC, G10, LQ1, LQ2, LQ4, Tet12, Oxy12, Hum12, Apt, Oxy28, and Hum24. […] This third band is ascribed to be a linear tetramer of Tet12.

Apt = test: Pre-stained gel electrophoresis selectivity assay; assay type: binding; details: 0.1 μM compound, 10 μM DNA, 254 nm UV light
Protocol: as §3, §4

G10 = test: Pre-stained gel electrophoresis selectivity assay; assay type: binding; details: 0.1 μM compound, 10 μM DNA, 254 nm UV light
Protocol: as §3, §4

GC = test: Pre-stained gel electrophoresis selectivity assay; assay type: binding; details: 0.1 μM compound, 10 μM DNA, 254 nm UV light
Protocol: as §3, §4

Hum12 = test: Pre-stained gel electrophoresis selectivity assay; assay type: binding; details: 0.1 μM compound, 10 μM DNA, 254 nm UV light
Protocol: as §3, §4

LD = test: Pre-stained gel electrophoresis selectivity assay; assay type: binding; details: 0.1 μM compound, 10 μM DNA, 254 nm UV light
Protocol: as §3, §4

LQ1 = test: Pre-stained gel electrophoresis selectivity assay; assay type: binding; details: 0.1 μM compound, 10 μM DNA, 254 nm UV light
Protocol: as §3, §4

LQ2 = test: Pre-stained gel electrophoresis selectivity assay; assay type: binding; details: 0.1 μM compound, 10 μM DNA, 254 nm UV light
Protocol: as §3, §4

Oxy12 = test: Pre-stained gel electrophoresis selectivity assay; assay type: binding; details: 0.1 μM compound, 10 μM DNA, 254 nm UV light
Protocol: as §3, §4

[3] = tested on: tested cancer cells (CL1-1, H1299, hTERT-BJ, Ca9-22, HeLa, KJ-1); test: Cancer cell diagnosis by wide-field fluorescence microscopy; assay type: cell-based, human; details: each type of tested cancer cells; 0.1 μM, 3-6 hours
Protocol: (§5) A wide-field fluorescence microscopy was custom made for diagnosing cancer cells. The microscopy consists of an Ar^+ laser (Coherent Inc. Santa Clara, Calif.) as the light source, a sensitive cooled charged-coupled device (CCD) camera (DV465-UV, Andor Technology, South Windsor, Conn.) for imaging, and two avalanche photodiodes (APDs) for transient photoluminescence measurement. Excitation and imaging were conducted by an oil immersion microscope objective with a numerical aperture of 1.3. A dichroism mirror (Omega) was used to direct the fluorescence into the CCD camera. A holographic notch filter (Oriel) was used to block the backscattered laser light. Images of 250×250 pixels were recorded at a high speed. The imaged area was 50×50 μm^2 and the spatial resolution was about 2 pixels.
(§6) The following cells were tested: CL1-1 human lung cancer cells, H1299 lung cancer cells, hTERT-BJ lung cancer cells, Ca9-22 oral cancer cells, HeLa cervical cancer cells, KJ-1 nasopharyngeal cancer cells, HaCaT keratinocyte cells, Detroit-551 skin normal cells, IMR-90 lung normal cells, and BJ-1 lung fibroblast cells. Specifically, cells were incubated with 0.1 μM of compound 2 in a culture medium for 3-6 hours. The non-fixed cells were washed three times with phosphate-buffered saline and then studied under the wide-field fluorescence microscope.

[4] = tested on: tested normal cells (HaCaT, Detroit-551, IMR-90, BJ-1); test: as above; assay type: cell-based; details: each type of tested normal cells; 0.1 μM, 3-6 hours
Protocol: as §5, §6

[5] = 10 mM Tris-HCl pH 7.5, 150 mM NaCl

Compound: C[n+]1ccc(C=Cc2ccc3[nH]c4ccc(C=Cc5cc[n+](C)cc5)cc4c3c2)cc1.[I-].[I-] [Compound 2, 3,6-bis-(2-(1-methylpyridinium-4-yl)-vinyl)-9H-carbazole diiodide]
- decrease of molar absorption coefficient (DNA duplex): ~15%
- absorption peak (DNA duplex; [5]): ~450 nm
- decrease of molar absorption coefficient (DNA quadruplex): ~35%
- absorption peak (DNA quadruplex; [5]): ~460 nm
- fluorescence in an aqueous solution [1]: weak
- melting temperature of Hum24 quadruplex in the presence of compound (Hum24 quadruplex): increased
- fluorescence bands in post-stained gels [2]: most DNAs exhibited fluorescence bands
- fluorescence band in pre-stained gel (AT): weak fluorescence bands
- fluorescence band in pre-stained gel (Apt): weak fluorescence bands
- fluorescence band in pre-stained gel (G10): no fluorescence bands
- fluorescence band in pre-stained gel (GC): no fluorescence bands
- fluorescence band in pre-stained gel (Hum12): weak fluorescence bands
- fluorescence band in pre-stained gel (LD): weak fluorescence bands
- fluorescence band in pre-stained gel (LQ1): no fluorescence bands
- fluorescence band in pre-stained gel (LQ2): exhibited fluorescence bands
- fluorescence band in pre-stained gel (Oxy12): exhibited fluorescence bands
- percentage of cells exhibiting bright fluorescence in the nucleus [3]: more than 70%
- percentage of cells exhibiting bright fluorescence in the nucleus [4]: less than 20%
